# Data reported in paper PMC12801355, “Peptide Amphiphiles Hitchhike on Endogenous Biomolecules for Enhanced Cancer Imaging and Therapy” (Advanced Materials (Deerfield Beach, Fla.), 2025).
# Where a SMILES comes first, the peptide text is derived from it. The star is where a group is joined. Palmitoyl = CCCCCCCCCCCCCCCC(=O)*
# Assays:
# [1] = test system: TRAMP‐C2 mouse prostate cancer cells; assay: Uptake of SA‐E by wild type or SR‐B1 knockout cells; format: cell-based; settings: Cy5 SA‐E 20 µM, 10% FBS DMEM
# Protocol: For SR‐B1 studies, an equal number of wells in a black walled, glass bottom 96‐well plate were seeded with either wild type or SR‐B1‐/‐ TRAMP‐C2 cells and grown to near confluency, as above. The Cy5 conjugated SA‐E was diluted in 10% FBS containing DMEM and incubated at room temperature for 30 min. All media from the wells was aspirated. Four wells of each cell type received 100 µL aliquots with SA‐E (20 µM). The plate was incubated for 30 min, as above. Following the methods above, wells were washed with PBS, media was added, and the plate was returned to the incubator for 1 h. Finally, Hoechst staining and fluorescence imaging were performed using a Leica Thunder DMi8 fluorescent microscope, as described above.
# [2] = Stability of PA nanostructures in plasma (fluorescence recovery); format: in vitro ADME, human
# Protocol: ICG or Cy5 conjugated PAs were dissolved in PBS (10 mM, pH 7.4) at a concentration of 1 or 100 µM, and 90 µL aliquots of these solutions were added to a 96 well plate (4 wells for each PA). Then, 10 µL of pooled human plasma was added to each well, and fluorescence spectra of ICG or Cy5 were recorded using a microplate reader (TECAN Spark 20 M) at different time points.
# HeLa tumors = assay: Tumor accumulation in wild type or LDL‐R‐/‐ tumors; format: in vivo, mouse; settings: 50 nmol IV, 2 days
# Protocol: (§1) For tumor accumulation studies in subcutaneous (HCT‐116, A375, TRAMP‐C2, MC38, LLC1, RG2, PDX cell lines, wild type or SR‐B1 ‐/‐ TRAMP‐C2, and wild type or LDL‐R ‐/‐ HeLa), intradermal (A375), or fat pad (4T1 and MCF‐7) tumors, cells were implanted as described above. When the tumors reached a size around ≈0.3–1 cm, mice were injected intravenously with 100 µL of ICG conjugated PAs (in PBS, 0.5 mM) or free ICG (in PBS, 0.5 mM). After probe injections, mice were imaged using the IVIS Spectrum (PerkinElmer) with excitation and emission wavelengths of 745 and 820 nm, respectively, at the specified time points. Living Image (PerkinElmer) software was used for all analyses. For MMTV mice experiments, mice were injected intravenously weekly with SA‐E (100 µL PBS, 0.5 mM) between 71 and 85 days of age and imaged 2 days later in the IVIS. […] SA‐E was injected intravenously (100 µL PBS, 0.5 mM), 2 days later the intestinal tissue was harvested, washed, and analyzed in the IVIS for ICG.
# [3] = test system: xenograft, syngeneic, transgenic and PDX tumor models; assay: Tumor accumulation in a broad range of tumor models; format: in vivo, mouse; settings: 2 days after 50 nmol IV
# Protocol: as §1
# [4] = Fluorescence polarization of PA nanostructures; format: physicochemical; settings: 10 mol% ICG conjugated PA (20 µM) with unconjugated PA, 200 µM total, PBS; mean ± SEM, 3 wells
# Protocol: ICG (10 mol%) containing PA micelles were prepared by mixing ICG‐conjugated PAs with unconjugated or MMAE‐conjugated PAs to achieve a final concentration of 20 µM ICG‐conjugated PAs and 200 µM of total PAs. Aliquots of 100 µL were added to a 96‐well plate (3 wells for each PA). Fluorescence polarization measurements were performed using a microplate reader (TECAN Spark 20 M). The corrected parallel intensity (I par) and perpendicular intensity (Iper) were used to calculate the fluorescence anisotropy (r) using the following equation: r = […].
# [5] = test system: small intestinal adenomas and colon polyps; assay: Detection of intestinal lesions in APC^min mice; format: in vivo, mouse
# Protocol: as §1
# [6] = TEM imaging of PA nanostructures; format: physicochemical; settings: ICG conjugated PA, 200 µM in ultrapure water, uranyl acetate negative stain
# Protocol: For TEM imaging, PAs conjugated with ICG, Cy5 or MMAE were dissolved in ultrapure water at a concentration of 200 µM. Carbonfilm 200 copper mesh TEM grids were glow‐discharged first. Then, PA solutions (15 µL) were placed on the grids, incubated for 10 min before blotting, and air‐dried. 15 µL of ultrapure water was applied to wash the grid for 3 min. After incubation, the water was removed by blotting from the edge of the grid. For negative staining of the samples, a 0.4% uranyl acetate solution was prepared in ultrapure water and filtered using a 0.1 µm syringe filter. 15 µL of filtered uranyl acetate solution was applied to the grid and incubated for 5 min. Finally, TEM grids were blotted to remove excess stain and dried at room temperature. TEM imaging was performed using a Tecnai or Talos microscope (FEI).
# [7] = ICG fluorescence in fractions of collected blood (plasma, WBC, RBC); format: in vivo; settings: mouse blood 1 h after 50 nmol IV; average
# Protocol: For these experiments, 100 µL of ICG conjugated SA‐E (0.5 mM) was intravenously injected into wild type (C57Bl/6J), ApoA1 ‐/‐, or LDL‐R ‐/‐ mice. One hour after injection blood was collected via cardiac puncture (500 µL) in EDTA containing tubes (BD MicroTainer Blood Collection Tube, 365974). To separate plasma, blood samples were centrifuged for 10 min at 1500 g, and supernatants were removed. Samples were centrifuged again for 10 min at 2500 g, and supernatants were stored at −20 °C for up to 5 days before use. For RBCs, 10 µL of the centrifugation pellet was separated and stored at −20 °C for up to 5 days before analysis. For WBCs, 100 µL of the remaining pellet was collected and combined with 2 mL Red Blood Cell Lysis Buffer (BioLegend, 420514). This mixture was allowed to incubate at room temperature for 15 min with occasional mixing. The solution was then centrifuged at 500 g for 5 min, the supernatant was removed, and the pellet was redissolved in 30 µL PBS, then stored at −20 °C for up to 5 days. […] For fluorescence measurements, 5 µL of samples were added to a 96 well plate, diluted to a total volume of 100 µL with PBS, and fluorescence was measured using a microplate reader (Tecan Spark 20 M).
smiles,measurement,setting,value
CCCCCCCCCCCCCCCC(=O)NCC(=O)NCC(=O)NCC(=O)N[C@@H](Cc1c[nH]cn1)C(=O)N[C@@H](C)C(=O)N[C@@H](C)C(=O)N[C@@H](CC(N)=O)C(=O)NCC(=O)N[C@@H](CCC(=O)O)C(=O)N[C@@H](CCC(=O)O)C(=O)N[C@@H](CS)C(=O)N[C@@H](CCC(=O)O)C(=O)O [SA‐E] (Palmitoyl-GGGHAANGEECE-OH),uptake in SR‐B1‐/‐ cells compared to wild type,[1],did not observe any significant change
same,increase in Cy5 fluorescence in plasma relative to SA‐K,"[2]; Cy5 conjugated PAs 100 µM, 10% human plasma, 1 h",≈ 10 fold
same,increase in ICG fluorescence in plasma relative to SA‐K (micelle disassembly),"[2]; ICG conjugated PAs 1 or 100 µM in PBS pH 7.4 with 10% pooled human plasma, over 2 h, plate reader, larger and more rapid than SA‐K",approximately three‐fold
same,"tumor accumulation, LDL‐R knockout versus wild type tumors",HeLa tumors,not needed for tumor accumulation
same,tumor accumulation across models,[3],highly specific tumor accumulation in all 13 tumor models
same,fluorescence anisotropy of ICG in micelles,[4],0.123 ± 0.006
same,colon polyps detected,[5]; 3 APC^min mice,4/4
same,small intestinal adenomas detected,[5]; 3 APC^min mice,71/71
same,"Colon, SA-E Negative lesions","[5]; mouse 1, of 2 lesions",0
same,"Colon, SA-E Positive lesions","[5]; mouse 1, of 2 lesions",2
same,"Small Intestine, SA-E Negative lesions","[5]; mouse 1, of 15 lesions",0
same,"Small Intestine, SA-E Positive lesions","[5]; mouse 1, of 15 lesions",15
same,"Colon, SA-E Negative lesions","[5]; mouse 2, of 1 lesion",0
same,"Colon, SA-E Positive lesions","[5]; mouse 2, of 1 lesion",1
same,"Small Intestine, SA-E Negative lesions","[5]; mouse 2, of 22 lesions",0
same,"Small Intestine, SA-E Positive lesions","[5]; mouse 2, of 22 lesions",22
same,"Colon, SA-E Negative lesions","[5]; mouse 3, of 1 lesion",0
same,"Colon, SA-E Positive lesions","[5]; mouse 3, of 1 lesion",1
same,"Small Intestine, SA-E Negative lesions","[5]; mouse 3, of 34 lesions",0
same,"Small Intestine, SA-E Positive lesions","[5]; mouse 3, of 34 lesions",34
same,size of spherical micelles (TEM),[6],5–10 nm
same,share of fluorescence in blood plasma,[7],98.9%
